Reference: patent US9724336B2, “Pharmaceutical composition for preventing or treating hyperlipidemia” (priority 2011, dated 2017)

Key:
[1] = test system: hypertriglyceridemia and hypercholesterolemia-induced animals; test: Triglyceride concentrations in hypertriglyceridemia and hypercholesterolemia-induced animals (Example 2); format: in vivo, New Zealand White rabbits; conditions: 4 weeks oral once per day, Compound of Formula 1 20 mg/kg/day and/or olmesartan medoxomil 3 mg/kg/day
Source text: Male New Zealand White rabbits were used as a test animal. All animals, except for the G1 group animals (negative control group), were fed with an irradiation-sterilized hypertriglyceridemia and hypercholesterolemia diet, i.e., DYET #621082 (Purina #5321 chow with 0.5% cholesterol, 14% coconut oil & 2% Maltose Dextrin, Dyets, Inc., Bethlehem, Pa. 18017), which was purchased from Saeronbio Inc. In order to induce hypertriglyceridemia and hypercholesterolemia, the animals were supplied with the diet for more than 4 weeks. After collecting the blood samples from the animals, serum biochemical analyses were performed thereon. Animals showing significant changes in total cholesterol levels and triglyceride levels were selected, in comparison with the non-treated control group. The selected animals were divided into 4 groups on the basis of the total cholesterol levels and triglyceride levels, thereby all the groups having substantially equal average values in the total cholesterol levels and triglyceride levels. The test materials were dissolved in saline containing 0.5% carboxymethylcellulose sodium and 1% Tween 80 and then administered directly into the stomach using an oral syringe adapted with a latex catheter, once per day for 4 weeks. The test groups are as in the following Table 3. […]

[2] = test system: hypertriglyceridemia and hypercholesterolemia-induced animals; test: HDL cholesterol concentrations in blood of hypertriglyceridemia and hypercholesterolemia-induced animals (Example 2); format: in vivo, New Zealand White rabbits; conditions: 4 weeks oral once per day, Compound of Formula 1 20 mg/kg/day and/or olmesartan medoxomil 3 mg/kg/day; for average HDL cholesterol concentrations, 4 weeks: n=4-7; for Percent increase of HDL cholesterol level (%): in comparison with the G2 group
Source text: Male New Zealand White rabbits were used as a test animal. All animals, except for the G1 group animals (negative control group), were fed with an irradiation-sterilized hypertriglyceridemia and hypercholesterolemia diet, i.e., DYET #621082 (Purina #5321 chow with 0.5% cholesterol, 14% coconut oil & 2% Maltose Dextrin, Dyets, Inc., Bethlehem, Pa. 18017), which was purchased from Saeronbio Inc. In order to induce hypertriglyceridemia and hypercholesterolemia, the animals were supplied with the diet for more than 4 weeks. After collecting the blood samples from the animals, serum biochemical analyses were performed thereon. Animals showing significant changes in total cholesterol levels and triglyceride levels were selected, in comparison with the non-treated control group. The selected animals were divided into 4 groups on the basis of the total cholesterol levels and triglyceride levels, thereby all the groups having substantially equal average values in the total cholesterol levels and triglyceride levels. The test materials were dissolved in saline containing 0.5% carboxymethylcellulose sodium and 1% Tween 80 and then administered directly into the stomach using an oral syringe adapted with a latex catheter, once per day for 4 weeks. The test groups are as in the following Table 3.
The blood samples were collected through the jugular vein, from the animals at the day initiating the administration of the test material(s) (i.e., at the time of group-dividing, 0 week), and from the animals (which were fasted for 12 to 16 hours before collecting the blood) at 4 weeks after initiating the administration of the test material(s) (n=4-7).

Row | SMILES | average triglyceride concentrations, 4 weeks ([1]; 0.5% cholesterol, 14% coconut oil diet, n=4-7) [mg/dL] | Percent inhibition of triglyceride in the blood (%) ([1]; in comparison with the G2 group) | average HDL cholesterol concentrations, 4 weeks [2] [mg/dL] | Percent increase of HDL cholesterol level (%) [2] [%]
1 | CCCc1nc(C(C)(C)O)c(C(=O)OCc2oc(=O)oc2C)n1Cc1ccc(-c2ccccc2-c2nnn[nH]2)cc1 [Olmesartan medoxomil] | 217.4 | 33.4 | 125.3 | 2.6
2 | COc1cc(F)c(C(C)C)cc1-c1ccc(C(F)(F)F)cc1CN1C(=O)O[C@H](c2cc(C(F)(F)F)cc(C(F)(F)F)c2)[C@@H]1C [Compound of Formula 1, (4S,5R)-5-[3,5-bis(trifluoromethyl)phenyl]-3-({2-[4-fluoro-2-methoxy-5-(propan-2-yl)phenyl]-5-(trifluoromethyl)phenyl}methyl)-4-methyl-1,3-oxazolidin-2-one] | – | – | 168.5 | 37.9
